Where a SMILES comes first, the peptide text is derived from it. [ ]: non-standard residue; d: D form. Dolaproine = CO[C@@H]([C@@H]1CCCN1)[C@@H](C)C(=O)O; Dil = CC[C@H](C)[C@H](NC)[C@@H](CC(=O)O)OC; NMeV = CN[C@H](C(=O)O)C(C)C
Tested on: TNBC tumor tissue
Experiment: Single-cell RNA sequencing of tumors
Format: in vivo, mouse
Settings: scRNA-Seq, payload effect
Protocol: The flash-frozen tissue samples (25 mg) were collected and stored at −80° C. until processing. Chromium Next GEM RNA Profiling Sample Fixation Kit (PN-1000414, 10× Genomics, Pleasanton, CA, USA) was used to fix tissue by mixing 1 mL of fixation buffer with 25 mg of tissue, followed by fine mince and incubation at 4° C. for 16-24 hours without agitation. After fixation, tissue samples were centrifuged, washed with chilled PBS, and resuspended in 1 mL of tissue resuspension buffer. The fixed tissues supplemented with pre-warmed dissociation buffer were dissociated using an Octo Dissociator according to the manufacturer's instructions. […] Cell concentration was determined using an automated cell counter with fluorescent nucleic acid staining. […]
A 10× single-cell library was prepared using the Chromium Fixed RNA Kit (Cat #1000497, 10× Genomics). […] The quality control of cDNA was evaluated using an Agilent Bioanalyzer aiming for the final library molecules with P5 and P7 priming sites used in Illumina sequencers. For each cDNA sample, single-cell library construction was started using the 10× barcoded ligated probe products, and sequenced using the NovaSeq 6000 flow cell 100-cycle kit (Illumina, San Diego, CA, USA) in a Read1:i7:i5:Read2 format of 28:10:10:90 bp at 10× Genomics. […]

CC[C@H](C)[C@@H]([C@@H](CC(=O)N1CCC[C@H]1[C@H](OC)[C@@H](C)C(=O)N[C@@H](Cc1ccccc1)C(=O)O)OC)N(C)C(=O)[C@@H](NC(=O)[C@@H](NC)C(C)C)C(C)C [MMAF, Monomethylauristatin F] (H-[NMeV]V[Dil][Dolaproine]F-OH)
tumor cell distribution in mitotic stages: inhibition of cell proliferation
